Laboratory results taken from patent US8987449B2, “Medicine for treating ischemic brain injury and its sequelae, and preparation method thereof” (Haimin Lei, priority 2011, dated 2015).

Key:
Format in all cases: in vivo, rat
[1] = tested on: MCAO rats; experiment: Tactile stimulus experiment (time of MCAO rats removing the tape); settings: for time of removing the tape, Evaluation (3 d): model group 244.29 ± 95.46; for time of removing the tape, Evaluation (7 d): model group 221.53 ± 105.33
Excerpt: 140 healthy SD male rats, weighing 280-300 g, provided by Beijing Vital River Laboratories, certificate No.: SCXK (Jing) 2002-2003. The method of [Koizumi J, Yoshida […]. Experimental studies of ischemia brain edema, I: A new experimental model of cerebral embolism in rats in which recirculation can be introduced in the ischemic area[J]. […] After the rats were anesthetized and the skin thereof was disinfected by ethanol. By cutting right in the middle of the neck, the right common carotid artery, internal carotid artery and external carotid artery were separated and the common carotid artery and external carotid artery were ligated. The internal carotid artery was clamped with a bulldog clamp. A cut was made at the crotch of the external carotid artery and the internal carotid artery followed by releasing the bulldog clamp. […] Next, the external carotid artery was ligated and the nylon wire was fixed. In sham operation group, the right common carotid artery, the external carotid artery and the internal carotid artery were only exposed and separated. The rats were routinely raised in different cages. 0.5 ml penicillin was continuously injected into every mouse for three days after the surgery. […] The rats getting 1-3 point were selected for the subsequent experiment. The MCAO rats having the same point were distributed randomly and averagely to each experimental group. […] Evaluated was the executive function change of side forelimb sense and fine motor movement after the cerebral ischemia. […] The third and the seventh days after the administration were set as the observation time to carry out the test. The SPSS 11.0 software pack was used to carry out the statistical analysis of all the data. The comparison of the enumeration data was carried out with X^2 test P<0.05 had statistical meaning.

[2] = tested on: MDA; experiment: MDA of MCAO rats (brain homogenate, kit); settings: model group 14.53 ± 3.29
Experimental: 10% chloral hydrate 0.35 g/kg was injected into the abdominal cavity of a rat to anesthetize thereof. The rat was fixed as supine position. The skin was disinfected thereof by 75% medical alcohol. It was cut right in the middle of the neck. The right common carotid artery, internal carotid artery and external carotid artery were separated and the common carotid artery and external carotid artery were ligated. The internal carotid artery was clamped with a bulldog clamp. A cut was made at the crotch of the external carotid artery and the internal carotid artery followed by releasing the bulldog clamp. The nylon wire (diameter 0.25 mm, marked at a distance of 18 mm from the head end) was inserted into the cut and the insertion was stopped when some resistance was felt. The insert depth was a little longer than 18 mm to achieve the cerebral ischemia caused by middle cerebral artery occlusion. The internal carotid artery was ligated and the nylon wire was fixed. The muscle and skin were sutured layer by layer. In sham operation group, the right common carotid artery, the external carotid artery and the internal carotid artery were only exposed and separated. The rats were conventionally raised in different cages regularly. 0.5 ml penicillin was continuously injected into every rat for three days after the surgery.
The rats were divided into 7 groups in the experiment, that is, sham operation group, model group, Nimodipine group, LQC-T4 large dosage group, LQC-T4 small dosage group, TMP group, and TMP+Vanillic acid group. The model rats getting 1 point were distributed randomly into the model group and other administration group, while the rats getting 2 point and 3 point were distributed randomly into above 6 groups according the above method and sham operation group was not involved in the above grouping. 0.5% CMC-NA (1 ml·100 g^−1) was administrated intragastrically to the blank control group and the model group, two dosage group of 120 mg·kg^−1, 60 mg·kg^−1 were administrated intragastrically to the LQC-T4 (1 ml·100 g^−1) group, and 74 mg·kg^−1 TMP+46 mg·kg^−1 vanillitc acid (1 ml·100 g^−1) were administrated intragastrically, once per day continuously for 10 days.
10% chloral hydrate 0.35 g/kg was injected into the abdominal cavity to anesthetize them after the rats were administrated for 10 days. The head was cut and the brain was taken. The cranial bones were stripped, the meninges were peeled off to separate the ischemia side of the brain, the blood streak was striped and then the brain was weighed. 4 times amount of 0.9 physiological saline was added and the brain was homogenized in 0° C. ice bath. […]
It was detected with 722 type visible spectrophotometer according to the kit operation. […]

[3] = tested on: VEGF; experiment: VEGF content of MCAO rats (kit, 450 nm); settings: brain homogenate, model group 18.28 ± 1.62
Excerpt: 1.1 Experimental animal and 1.2 Medicine to be tested: the same as effect example 6
1.3 Experimental reagents: PBS, VEGF kit
1.4 Experimental instruments: nylon fishing wire having a diameter of 0.25 mm, German; enzyme-labeling instrument (Finland, Thermo BioAnalysis Company's product, Multiskan MK3 model); surgical instruments, Surgical Instrument Factory of Shanghai Medical Apparatus And Instruments CO, LTD.
2.1 The preparation of re-perfusion model of middle cerebral artery occlusion of a rat: the same as effect example 6
2.2 The judgment on whether the model was successful and 2.3 Grouping and administration: the same as effect example 6
2.4 Taking Material and treatment: the same as effect example 6
As to VEGF, it is detected using enzyme-labeling instrument at 450 nm according to the kit.
The SAS 8.2 statistical software was used to carry out the one-way ANOVA variance analysis and the differences among the groups were compared by t-test.

[4] = 30 mg/kg once per day for 10 days
[5] = 37 mg/kg once per day for 10 days
[6] = 60 mg/kg intragastrically once a day
[7] = 120 mg/kg intragastrically once a day
[8] = 60 mg/kg intragastrically once per day for 10 days
[9] = 120 mg/kg intragastrically once per day for 10 days

For COCCOC(=O)C1=C(C)NC(C)=C(C(=O)OC(C)C)C1c1cccc([N+](=O)[O-])c1 (stereo not shown) [Nimodipine, reference compound], the “time of removing the tape, Evaluation (3 d)” value (“time … (3 d)” below) ([1]; 30 mg/kg once a day) was 211.13 ± 116.65 s, the “time of removing the tape, Evaluation (7 d)” value (from here on “time … (7 d)”) ([1]; 30 mg/kg once a day) was 183.93 ± 124.50 s and the MDA [2, 4] was 13.70 ± 6.56. For the same compound, the VEGF [3, 4] was 19.66 ± 2.34.

Cc1nc(C)c(C)nc1C [TMP, tetramethylpyrazine, reference compound] was tested, and the “time … (3 d)” value ([1]; 37 mg/kg once a day) was 200.43 ± 117.81 s, the “time … (7 d)” value ([1]; 37 mg/kg once a day) was 211.35 ± 111.15 s and the MDA [2, 5] was 13.27 ± 3.96. It also gave a VEGF [3, 5] of 23.62 ± 6.68.

In the case of COc1cc(C(=O)OCc2nc(C)c(C)nc2C)ccc1OCc1nc(C)c(C)nc1C [LQC-T4, (3,5,6-trimethylpyrazine-2-yl)methyl 3-methoxy-4-((3,5,6-trimethylpyrazine-2-yl)methoxy) benzoate], the “time … (3 d)” value [1, 6] is reported as 181.31 ± 133.40 s, the “time … (7 d)” value [1, 6] is reported as 175.80 ± 139.06 s and the “time … (3 d)” value [1, 7] is reported as 222.64 ± 104.45 s. The “time … (7 d)” value [1, 7] was 245.95 ± 98.23 s, the MDA [2, 8] was 14.32 ± 6.31 and the MDA [2, 9] was 11.08 ± 4.53. The VEGF [3, 8] was 25.67 ± 9.69 and the VEGF [3, 9] was 22.86 ± 8.42.
